Measurements: patent publication US7074802B2, “Pyrimidine derivatives as selective inhibitors of cox-2” (Glaxo Group Limited, priority 2001, dated 2006)

Key:
COX-1 = COX-1 (Homo sapiens, UniProt P23219); test: Microsomal assay, inhibition of COX-1; assay type: biochemical
Experimental: (§1) Inhibitory activity against microsomal h-COX2 was assessed against a microsomal preparation from baculovirus infected SF9 cells. An aliquot of microsomal preparation was thawed slowly on ice and a 1/40,000 dilution prepared from it into the assay buffer (sterile water, degassed with argon containing 100 mM HEPES (pH 7.4), 10 mM EDTA (pH7.4), 1 mM phenol, 1 mM reduced glutathione, 20 mg/ml gelatin and 0.001 mM Hematin). Once diluted the enzyme solution was then sonicated for 5 seconds (Branson sonicator, setting 4, 1 cm tip) to ensure a homogeneous suspension. 155 μl enzyme solution was then added to each well of a 96-well microtitre plate containing either 5 μl test compound (40× required test concentration) or 5 μl DMSO for controls. Plates were then mixed and incubated at room temperature for 1 hour. Following the incubation period, 40 μl of 0.5 μM arachidonic acid was added to each well to give a final concentration of 0.1 μM. Plates were then mixed and incubated for exactly 10 minutes (room temperature) prior to addition of 25 μl 1M HCl (hydrochloric acid) to each well to stop the reaction. 25 μl of 1M NaOH (sodium hydroxide) was then added to each well to neutralise the solution prior to determination of PGE2 levels by enzyme immunoassay (EIA).
(§2) The following IC50 values for inhibition of COX-2 and COX-1 were obtained from the microsomal assay for compounds of the invention: […]

microsomal h-COX2 = molecular target: T1, microsomal h-COX2 (Homo sapiens, UniProt P35354); test: Microsomal assay, inhibition of COX-2; assay type: biochemical; conditions: microsomal preparation from baculovirus infected SF9 cells; PGE2 by EIA
T1 construct: made in house; host or cells: baculovirus infected SF9 cells (microsomal preparation)
T1 sequence (P35354 18-604): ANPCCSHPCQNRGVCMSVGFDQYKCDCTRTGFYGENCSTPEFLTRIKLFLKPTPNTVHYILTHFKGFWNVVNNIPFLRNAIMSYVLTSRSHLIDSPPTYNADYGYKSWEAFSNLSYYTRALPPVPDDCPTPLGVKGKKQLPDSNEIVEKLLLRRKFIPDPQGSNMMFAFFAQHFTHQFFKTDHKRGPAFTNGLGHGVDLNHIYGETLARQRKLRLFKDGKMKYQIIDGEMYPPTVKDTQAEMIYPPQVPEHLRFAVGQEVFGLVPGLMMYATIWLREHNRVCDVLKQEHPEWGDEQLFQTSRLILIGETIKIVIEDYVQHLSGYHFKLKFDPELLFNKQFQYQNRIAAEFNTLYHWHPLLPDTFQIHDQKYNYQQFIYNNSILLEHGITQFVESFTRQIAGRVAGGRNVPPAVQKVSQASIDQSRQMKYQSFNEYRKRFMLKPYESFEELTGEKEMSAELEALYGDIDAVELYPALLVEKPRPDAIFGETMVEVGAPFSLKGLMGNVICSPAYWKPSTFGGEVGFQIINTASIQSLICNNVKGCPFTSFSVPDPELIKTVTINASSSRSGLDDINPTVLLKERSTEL
Experimental: as §1, §2

COX-1, sequence (P23219 24-599): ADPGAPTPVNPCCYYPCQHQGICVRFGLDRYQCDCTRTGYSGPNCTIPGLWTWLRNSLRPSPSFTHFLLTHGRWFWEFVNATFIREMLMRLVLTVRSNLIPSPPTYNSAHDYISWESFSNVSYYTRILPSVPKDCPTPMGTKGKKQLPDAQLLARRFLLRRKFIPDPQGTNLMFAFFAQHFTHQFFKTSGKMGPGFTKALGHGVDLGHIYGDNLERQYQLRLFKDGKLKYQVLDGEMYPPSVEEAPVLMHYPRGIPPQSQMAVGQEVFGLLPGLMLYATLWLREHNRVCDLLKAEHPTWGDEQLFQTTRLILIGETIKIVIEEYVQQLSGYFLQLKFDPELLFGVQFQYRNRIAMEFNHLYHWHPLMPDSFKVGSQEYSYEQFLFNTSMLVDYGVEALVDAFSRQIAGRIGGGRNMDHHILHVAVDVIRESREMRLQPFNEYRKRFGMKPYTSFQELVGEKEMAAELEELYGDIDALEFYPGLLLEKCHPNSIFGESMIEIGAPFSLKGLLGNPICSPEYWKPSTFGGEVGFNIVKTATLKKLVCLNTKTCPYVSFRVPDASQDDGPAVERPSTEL

IC50 (COX-1) [nM]	IC50 (microsomal h-COX2) [nM]	Structure (SMILES)
> 10000	761	CCCCNc1nc(CF)cc(-c2ccc(S(C)(=O)=O)cc2)n1 [Example 1, N-Butyl-4-(fluoromethyl)-6-[4-(methylsulfonyl)phenyl]pyrimidin-2-amine]
> 94000	17	CCCCNc1nc(-c2ccc(S(C)(=O)=O)cc2)cc(C(F)F)n1 [Example 2, N-butyl-4-(difluoromethyl)-6-[4-(methylsulfonyl)phenyl]pyrimidin-2-amine]
